The record followed here is US9637490B2, “Antifungal 5,6-dihydro-4-[(difluoroethyl)phenyl]-4H-pyrrolo[1,2-α][1,4]benzodiazepine and 4-(difluoroethyl)phenyl-6H-pyrrolo[1,2-α][1,4]benzodiazepine derivatives” (Janssen Pharmaceutica NV, priority 2010, dated 2017).

Data set [1] has as its system Scedosporium apiospermum IHEM3817. Description: Antifungal activity in vitro (resazurin susceptibility screen), Inf. H. The class given is cell-based. As to conditions: Scedosporium apiospermum, IHEM3817, Scedosporium apiospermum IHEM3817; 37 °C, 48 hours, resa time 17 hours. In a few lines:
(§1)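 Serial dilutions were tested up to 64 μM in RPMI-1640 with L-glutamine and 2% glucose, MOPS-buffered at pH 7.0, against an inoculum of 10^3 cfu per well. Incubation lasted from 24 h at 37° C. for yeasts to a week or more at 27° C. for dermatophytes. Growth was then read fluorimetrically after resazurin (ex 550/em 590 nm).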

Data set [2] has as its system Trichophyton rubrum B68183. Description: Antifungal activity in vitro (resazurin susceptibility screen), Inf. C. As to conditions: Trichophyton rubrum, B68183, Trichophyton rubrum B68183; 27 °C, 7 days, resa time 24 hours. The data set is classed as cell-based. In a few lines:
as §1

The test system of data set [3] is Scedosporium prolificans IHEM21157. Description: Antifungal activity in vitro (resazurin susceptibility screen), Inf. I. The class given is cell-based. The conditions noted are these: Lomentospora prolificans, 37 °C, 48 hours, resa time 17 hours. In a few lines:
as §1

Data set [4] deals with Trichophyton mentagrophytes B70554. Description: Antifungal activity in vitro (resazurin susceptibility screen), Inf. G. The class given is cell-based. The conditions noted are these: Trichophyton mentagrophytes, B70554, Trichophyton mentagrophytes B70554; 27 °C, 7 days, resa time 24 hours. In a few lines: as §1
Data set [5] can be described thus: In vivo pharmacokinetic determinations (bioavailability) in guinea pigs. As to conditions: guinea pig, po. Here is the method: (§2) Three animals (mean weight 20±7 g for mice and 275±20 for Guinea pigs) were used per dose route, time point and formulation.
(§3) For the oral (PO) solution formulation, compound was dissolved in a 20% hydroxypropyl-β-cyclodextrin (HP-β-CD) solution at a final concentration of 1 mg/ml. HCl was added to facilitate dissolution. After dissolution, the pH was brought up to 3.7 with NaOH. Mannitol was added to make the solution isotonic. For the PO suspension formulation, compound was suspended in 0.5% methocel at a final concentration of 1 mg/ml. The formulations were stored at room temperature, protected from light and analysed quantitatively with LC-MS/MS on the day of preparation. Stability of the formulations was checked on the day of dosing.
(§4) The animals were dosed orally by gastric intubation at 10 ml/kg to obtain a final dose 10 mg/kg. Three dosed animals were sacrificed for blood sampling at 15 and 30 min, 1, 2, 3, 4, 6, 8 and 24 h after PO dose administration as a solution and at 30 min, 1, 2, 4, 6, 8 and 24 h after PO dose administration as a suspension.
(§5) Blood was collected by multiple sampling from a tail vein into Multivette® 600 K3E tubes (Sarstedt). Samples were placed immediately at approximately 4° C. and plasma was obtained following centrifugation at 4° C. for 10 minutes at approximately 1900×g. All samples were shielded from daylight and stored at ≦−18° C. prior to analysis.
(§6) Plasma samples were analysed for dosed compound using a qualified research LC-MS/MS method. The key analytical performance (linearity, upper and lower limit of quantification, accuracy and precision) of the method was reported together with the plasma concentrations.
(§7) A limited pharmacokinetic analysis was performed using WinNonlin™ Professional (Version 5.2.1). A non-compartmental analysis using the lin/log trapezoidal rule with lin/log interpolation was used for all data.

For data set [6], the system named is Rhizomucor miehei IHEM13391. Description: Antifungal activity in vitro (resazurin susceptibility screen), Inf. K. The data set is classed as cell-based. As to conditions: Rhizomucor miehei, IHEM13391, Rhizomucor miehei IHEM13391; 37 °C, 48 hours, resa time 17 hours. In a few lines: as §1
Data set [7] is described as follows: in vivo. The conditions noted are these: mouse, po, 10 mg/kg. Further details: species or system mice. The method, then:
as §2, §3, §4, §5, §6, §7

For data set [8], the system named is Microsporum canis B68128. Description: Antifungal activity in vitro (resazurin susceptibility screen), Inf. B. The data set is classed as cell-based. The conditions noted are these: Microsporum canis, B68128, Microsporum canis B68128; 27 °C, 9 days, resa time 24 hours. In a few lines: as §1

pIC50: −log10 of the molar value.

In turn, `CC(F)(F)c1ccc(C2=NCc3c(Cl)cccc3-n3cccc32)cc1` [Compound 4, 7-chloro-4-[4-(1,1-difluoroethyl)phenyl]-6H-pyrrolo[1,2-a][1,4]benzodiazepine] yielded a melting point of 215.2 to 217.6 °C. In data set [1], the pIC50 is under 4.19. For the same compound, in data set [2], the pIC50 was 6.63. The compound also showed a pIC50 in data set [3] of 6.83. This compound showed a negative logarithm of the IC50 (pIC50) in [4] of 6.05. The compound further displayed a bioavailability in [5] of 35%. The pIC50 in data set [6] is under 4.19. Also, the bioavailability in data set [7] came out at 20%. The compound further showed a pIC50 in data set [8] of 6.32.
